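Where inhibition never reached the appropriate level, the endpoint shown equals the highest concentration tested. Otherwise, values were interpolated linearly from a five-concentration, 48-hour dose response in 96-well plates. GI50 is the concentration that inhibits growth by half.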 Active and inactive are the calls of the source. Cut-off read from the data, not from the text of the source: active = GI50 up to about 1.1 µM and inactive = higher.
What was measured:
Assay in all cases: growth of human tumour cells (NCI), 48 h
M14 = test system: M14
HCC 2998 = test system: HCC 2998
A549 = test system: A549
UACC-257 = test system: UACC-257
UACC-62 = test system: UACC-62
A498 = test system: A498
OVCAR-8 = test system: OVCAR-8
SK-MEL-28 = test system: SK-MEL-28
HL-60 = test system: HL-60
U-251 = test system: U-251
HOP-62 = test system: HOP-62
COLO 205 = test system: COLO 205
OVCAR-5 = test system: OVCAR-5
SNB-19 = test system: SNB-19
NCI-H23 = test system: NCI-H23
NCI-H226 = test system: NCI-H226
EKVX = test system: EKVX
RPMI-8226 = test system: RPMI-8226

Measured: GI50

CN1CC(C(=O)C2C(=O)c3ccccc3C2=O)C(=O)C(=O)C(C(=O)C2C(=O)c3ccccc3C2=O)C1 (stereo not given)
inactive: M14 > 10 µM | HCC 2998 > 100 µM | A549 > 100 µM | UACC-257 > 100 µM | UACC-62 > 100 µM | A498 > 100 µM | OVCAR-8 77.6 µM | SK-MEL-28 > 100 µM | HL-60 > 100 µM | U-251 > 100 µM | HOP-62 > 10 µM | COLO 205 > 100 µM | OVCAR-5 > 100 µM | SNB-19 > 100 µM | NCI-H23 > 100 µM

O=c1[nH]cc(COCC(O)CO)c(=O)[nH]1 (stereo not given)
inactive: M14 > 100 µM | A549 > 100 µM | UACC-257 > 100 µM | UACC-62 > 100 µM | A498 > 100 µM | OVCAR-8 > 100 µM | SK-MEL-28 > 100 µM | NCI-H226 > 100 µM | HL-60 > 100 µM | U-251 > 100 µM | HOP-62 > 100 µM | COLO 205 > 100 µM | OVCAR-5 > 100 µM | EKVX > 100 µM | SNB-19 > 100 µM | RPMI-8226 > 100 µM | NCI-H23 > 100 µM

COc1ccccc1NC(=O)C1=C(C)NC(C)=C(C(=O)Nc2ccccc2OC)C1c1ccc([N+](=O)[O-])cc1
inactive: M14 85.7 µM | A549 > 100 µM | UACC-257 > 100 µM | UACC-62 59.6 µM | A498 > 100 µM | OVCAR-8 > 100 µM | SK-MEL-28 27 µM | NCI-H226 > 100 µM | HL-60 39.2 µM | U-251 86.1 µM | HOP-62 > 100 µM | COLO 205 56.2 µM | OVCAR-5 22.4 µM | EKVX 82.6 µM | SNB-19 89.1 µM | RPMI-8226 18.5 µM | NCI-H23 58.6 µM

N#Cc1ccccc1NC(=O)c1ccccc1
inactive: A549 > 100 µM | UACC-257 > 100 µM | UACC-62 > 100 µM | A498 > 100 µM | OVCAR-8 > 100 µM | SK-MEL-28 > 100 µM | U-251 > 100 µM | HOP-62 > 100 µM | COLO 205 > 100 µM | OVCAR-5 > 100 µM | EKVX > 100 µM | SNB-19 > 100 µM | RPMI-8226 > 100 µM | NCI-H23 > 100 µM

Nc1nc(SCCC/C=C/B(O)O)nc2c1ncn2C1OC(COP(=O)(O)O)C(O)C1O (stereo not given)
inactive: M14 > 203 µM | A549 > 203 µM | UACC-257 > 203 µM | UACC-62 > 203 µM | A498 > 203 µM | OVCAR-8 > 203 µM | SK-MEL-28 > 203 µM | NCI-H226 > 203 µM | HL-60 > 203 µM | U-251 > 203 µM | HOP-62 > 203 µM | COLO 205 > 203 µM | OVCAR-5 > 203 µM | SNB-19 > 203 µM | RPMI-8226 > 203 µM | NCI-H23 > 203 µM

O=C1CC2CCN(C(=O)c3ccccc3)CC2CCN1.O=C1CCC2CC(C(=O)c3ccccc3)CCC2CN1 (stereo not given)
inactive: M14 > 100 µM | HCC 2998 > 100 µM | A549 > 100 µM | UACC-257 > 100 µM | UACC-62 52.1 µM | OVCAR-8 > 100 µM | SK-MEL-28 > 100 µM | NCI-H226 > 100 µM | HL-60 > 100 µM | U-251 > 100 µM | HOP-62 > 100 µM | COLO 205 > 100 µM | OVCAR-5 > 100 µM | EKVX > 100 µM | SNB-19 > 100 µM | RPMI-8226 > 100 µM | NCI-H23 > 100 µM

CCOC(=O)C1C(c2ccc(Br)cc2)N(Cc2ccccc2)C(c2ccc(Br)cc2)C(C(=O)OC)S1(=O)=O (stereo not given)
inactive: M14 83.4 µM | HCC 2998 > 100 µM | A549 76.9 µM | UACC-257 24.9 µM | UACC-62 > 100 µM | OVCAR-8 24.8 µM | SK-MEL-28 53.3 µM | NCI-H226 46.8 µM | HL-60 > 100 µM | HOP-62 > 100 µM | COLO 205 > 100 µM | OVCAR-5 > 100 µM | EKVX > 100 µM | SNB-19 27.5 µM | RPMI-8226 32.7 µM | NCI-H23 > 100 µM

CCOC(=O)c1s/c(=N\Nc2nc3ccccc3cc2C2OCCO2)n(Cc2ccccc2)c1C
inactive: M14 > 100 µM | A549 > 100 µM | UACC-257 > 100 µM | UACC-62 > 100 µM | A498 > 100 µM | OVCAR-8 > 100 µM | SK-MEL-28 > 100 µM | NCI-H226 > 100 µM | HL-60 > 100 µM | U-251 > 100 µM | HOP-62 > 100 µM | COLO 205 > 100 µM | OVCAR-5 > 100 µM | EKVX > 100 µM | SNB-19 > 100 µM | RPMI-8226 > 100 µM | NCI-H23 > 100 µM

O=C1NC(=O)C(=Cc2c3ccccc3cc3ccccc23)C(=O)N1
inactive: M14 > 100 µM | A549 > 100 µM | UACC-62 > 100 µM | A498 > 100 µM | OVCAR-8 > 100 µM | SK-MEL-28 > 100 µM | HL-60 44.7 µM | U-251 > 100 µM | HOP-62 > 100 µM | COLO 205 > 100 µM | SNB-19 > 100 µM | RPMI-8226 31.6 µM | NCI-H23 > 100 µM

CC(=O)OCc1cc2ccccc2nc1C(Br)(Br)Br
inactive: M14 18.8 µM | HCC 2998 15.4 µM | A549 16.4 µM | UACC-257 12.4 µM | UACC-62 15.5 µM | A498 21.2 µM | SK-MEL-28 17.9 µM | NCI-H226 21.5 µM | HL-60 14.9 µM | U-251 14 µM | HOP-62 26.1 µM | COLO 205 19.6 µM | OVCAR-5 15.4 µM | EKVX 19.1 µM | SNB-19 20.1 µM | NCI-H23 13.6 µM

CCCCCNC(=O)C1C(=O)N(CCCCC)C(=O)/C1=N\N (stereo not given)
inactive: M14 57.9 µM | HCC 2998 35.3 µM | A549 77.6 µM | UACC-257 > 100 µM | UACC-62 43.5 µM | A498 > 100 µM | OVCAR-8 49.2 µM | SK-MEL-28 62.8 µM | HL-60 > 100 µM | U-251 30.1 µM | HOP-62 35.5 µM | COLO 205 > 100 µM | OVCAR-5 > 100 µM | EKVX 86.7 µM | SNB-19 35.2 µM | NCI-H23 47.5 µM

CN(CCN(C)C(=O)CCn1cc(F)c(=O)[nH]c1=O)C(=O)CCn1cc(F)c(=O)[nH]c1=O
inactive: M14 > 100 µM | HCC 2998 > 100 µM | A549 > 100 µM | UACC-62 > 100 µM | OVCAR-8 > 100 µM | SK-MEL-28 > 100 µM | NCI-H226 > 100 µM | HL-60 > 100 µM | U-251 > 100 µM | HOP-62 > 100 µM | COLO 205 > 100 µM | OVCAR-5 > 100 µM | EKVX > 100 µM | SNB-19 > 100 µM | RPMI-8226 > 100 µM | NCI-H23 > 100 µM

Source: ChEMBL document CHEMBL1201862, “PubChem BioAssay data set” (2004)
